Series [1] is described as follows: Cytotoxicity against human ECT1/E6E7 cells assessed as cell growth inhibition. In kind it is toxicity, cell-based.
Series [2] in a line: Cytotoxicity against human MCF-10F cells assessed as cell growth inhibition. In kind it is toxicity, cell-based.
Series [3] is described as follows: Cytotoxicity against human MCF-10F cells assessed as cell growth inhibition at 10 uM relative to control. It is filed as toxicity, cell-based. The settings on record: read-out: GI.
A short description of series [4]: Cytotoxicity against human THLE-2 cells assessed as cell growth inhibition at 10 uM relative to control. The settings on record: read-out: GI. It is filed as toxicity, cell-based.
Series [5] is described as follows: Cytotoxicity against human BJ cells assessed as cell growth inhibition. It is filed as toxicity, cell-based.
A short description of series [6]: Cytotoxicity against human WPE1-NA22 cells assessed as cell growth inhibition at 10 uM relative to control. It is filed as toxicity, cell-based. Conditions: read-out: GI.
Series [7] is described as follows: Cytotoxicity against human HCN-1A cells assessed as cell growth inhibition. It is filed as toxicity, cell-based.
Series [8] in a line: Cytotoxicity against human BJ cells assessed as cell growth inhibition at 10 uM relative to control. In kind it is toxicity, cell-based. Conditions: read-out: GI.
Series [9] can be described thus: Cytotoxicity against human THLE-2 cells assessed as cell growth inhibition. It is filed as toxicity, cell-based.
Series [10] can be described thus: Cytotoxicity against HEK293 cells assessed as cell growth inhibition at 10 uM relative to control. It is filed as toxicity, cell-based. Conditions: human, read-out: GI.
A short description of series [11]: Cytotoxicity against human MRC5 cells assessed as cell growth inhibition at 10 uM relative to control. Conditions: read-out: GI. In kind it is toxicity, cell-based.
Series [12] is described as follows: Cytotoxicity against human MRC5 cells assessed as cell growth inhibition. In kind it is toxicity, cell-based.
A short description of series [13]: Cytotoxicity against HEK293 cells assessed as cell growth inhibition. It is filed as toxicity, cell-based. Conditions: human.
Series [14] is described as follows: Cytotoxicity against human WPE1-NA22 cells assessed as cell growth inhibition. It is filed as toxicity, cell-based.
Series [15] in a line: Cytotoxicity against human ECT1/E6E7 cells assessed as cell growth inhibition at 10 uM relative to control. In kind it is toxicity, cell-based. The settings on record: read-out: GI.
The nature of series [16]: Cytotoxicity against human HCN-1A cells assessed as cell growth inhibition at 10 uM relative to control. It is filed as toxicity, cell-based. The settings on record: read-out: GI.
For series [17], the system named is voltage dependent L/T-type calcium channel. As to the kind of experiment: Inhibition of voltage dependent L/T-type calcium channel in human SH-SY5Y cells. The settings on record: sh-sy5y.
Series [18] deals with INS1. As to the kind of experiment: Induction of apoptosis in rat INS1 cells assessed as total apoptotic cells at 1 uM incubated for 36 hrs by Annexin V-FITC/ propidium iodide staining based flow cytometry analysis (reference value: 0.53%). It is filed as functional.
The test system of series [19] is INS1. As to the kind of experiment: Induction of apoptosis in rat INS1 cells assessed as early apoptotic cells at 1 uM incubated for 36 hrs by Annexin V-FITC/ propidium iodide staining based flow cytometry analysis (reference value: 0.34%). It is filed as functional. In general terms: Flow cytometry measures light scatter and fluorescence of single cells or particles in a stream.

Series [20] has as its system INS1. Kind of series: Induction of apoptosis in rat INS1 cells assessed as late apoptotic cells at 1 uM incubated for 36 hrs by Annexin V-FITC/ propidium iodide staining based flow cytometry analysis (reference value: 0.19%). It is filed as functional.
Series [21] deals with INS1. As to the kind of experiment: Induction of apoptosis in rat INS1 cells assessed as necrotic cells at 1 uM incubated for 36 hrs by Annexin V-FITC/ propidium iodide staining based flow cytometry analysis (reference value: 1.15%). In kind it is functional.
A further series addresses T1, Alpha amylase (Homo sapiens, UniProt P0DUB6).
T1 sequence (P0DUB6 whole entry): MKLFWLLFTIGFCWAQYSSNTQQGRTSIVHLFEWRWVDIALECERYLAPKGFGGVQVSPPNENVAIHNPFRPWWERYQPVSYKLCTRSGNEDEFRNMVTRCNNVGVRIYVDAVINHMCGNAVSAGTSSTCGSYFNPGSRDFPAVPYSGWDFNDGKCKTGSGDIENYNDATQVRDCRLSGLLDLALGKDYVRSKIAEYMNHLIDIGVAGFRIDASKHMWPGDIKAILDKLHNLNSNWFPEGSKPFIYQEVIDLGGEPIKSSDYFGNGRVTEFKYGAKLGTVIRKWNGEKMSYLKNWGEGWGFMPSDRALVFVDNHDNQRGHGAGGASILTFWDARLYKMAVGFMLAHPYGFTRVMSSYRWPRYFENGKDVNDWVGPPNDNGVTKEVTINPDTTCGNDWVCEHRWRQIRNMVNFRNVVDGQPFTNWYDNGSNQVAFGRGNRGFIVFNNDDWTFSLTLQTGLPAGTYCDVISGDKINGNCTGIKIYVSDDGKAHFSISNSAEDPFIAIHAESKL
Kind of series: Inhibition of alpha amylase (unknown origin) measured after 20 to 25 mins.

Series [22] relates to Mus musculus. As to the kind of experiment: Antidiabetic activity against high fat diet-STZ-induced diabetic Swiss albino mouse model assessed as reduction in blood glucose level at 0.2 mmol/Kg/day, po administered for 14 days relative to control. It is filed as functional. Also noted: scale not given: the % may be the effect or the level left. The settings on record: time 14 day.

Series [23] deals with Mus musculus. Kind of series: Antioxidant activity against high fat diet-STZ-induced diabetic Swiss albino mouse model assessed as serum SOD level at 0.2 mmol/Kg/day, po administered for 14 days (reference value: 273.01+/- 6.23 U/ml). Conditions: time 14 day. In kind it is functional.
Series [24] has as its system Mus musculus. As to the kind of experiment: Antidiabetic activity against high fat diet-STZ-induced diabetic Swiss albino mouse model assessed as insulin resistance by measuring serum IL6 level at 0.2 mmol/Kg/day, po administered for 14 days by ELISA method (reference value: 39.30+/-4.14 pg/ml). It is filed as functional. Conditions: time 14 day.
Series [25] can be described thus: Toxicity in high fat diet-STZ-induced diabetic Swiss albino mouse model assessed as changes in body weight at 0.2 mmol/Kg/day, po administered for 14 days (reference value: 26.6 to 27.8 g). It is filed as organism-based. Conditions: in vivo, 336 h, time 14 day.
Series [26] concerns Mus musculus. As to the kind of experiment: Antioxidant activity against high fat diet-STZ-induced diabetic Swiss albino mouse model assessed as serum MDA level at 0.2 mmol/Kg/day, po administered for 14 days (reference value: 8.70+/- 0.09 nmol/ml). In kind it is functional. Conditions: time 14 day.
Series [27] has as its system Mus musculus. Kind of series: Antidiabetic activity against high fat diet-STZ-induced diabetic Swiss albino mouse model assessed as serum insulin level at 0.2 mmol/Kg/day, po administered for 14 days by ELISA method (reference value: 16.37 +/- 0.62 uU/ml). In kind it is functional. Conditions: time 14 day. For orientation: ELISA stands for enzyme-linked immunosorbent assay.

Series [28] deals with Mus musculus. As to the kind of experiment: Antioxidant activity against high fat diet-STZ-induced diabetic Swiss albino mouse model assessed as serum catalase level at 0.2 mmol/Kg/day, po administered for 14 days (reference value: 378.22+/- 14.45 U/ml). In kind it is functional. Conditions: time 14 day.
Series [29] deals with Mus musculus. Kind of series: Antidiabetic activity against high fat diet-STZ-induced diabetic Swiss albino mouse model assessed as insulin resistance by measuring serum TNFalpha level at 0.2 mmol/Kg/day, po administered for 14 days by ELISA method (reference value: 376.50+/-14.50 ng/ml). In kind it is functional. Conditions: time 14 day.
The subject of series [30] is Mus musculus. As to the kind of experiment: Antidiabetic activity against high fat diet-STZ-induced diabetic Swiss albino mouse model assessed as reduction in blood glucose level at 0.2 mmol/Kg/day, po administered for 14 days. It is filed as functional. Conditions: time 14 day.

Consider 5 compounds from ChEMBL document CHEMBL5316297, “Mechanistic Insight of Synthesized 1,4-Dihydropyridines as an Antidiabetic Sword against Reactive Oxygen Species” (J Med Chem, 2023).

The GI50 is the concentration that inhibits growth by half. As usually defined, the IC50 is the midpoint of a concentration-inhibition curve.

As for `COc1cccc2c1C(=O)c1c(O)c3c(c(O)c1C2=O)C[C@@](O)(C(=O)CO)C[C@@H]3O[C@H]1C[C@H](N)[C@H](O)[C@H](C)O1` [DOXORUBICIN], the GI50 amounted to 1.47 µM in [1]; 14.2 µM in [2]; 8.91 µM in series [5]; 11.2 µM in [7]; 17.1 µM in series [9]; 12.5 µM in [12]. The concentration for 50% growth inhibition (GI50) in series [13] is 9.69 µM; in series [14], 11.6 µM. The inhibition at 10 µM is 41.6% in series [3]; 35.6% in series [4]; 57.1% in series [6]; 45.8% in series [8]; 46% in [10]; 38.4% in series [11]. Besides, the inhibition at 10 µM in series [15] is 33%; in series [16] it was 40.9%.
In the case of `COC(=O)C1=C(C)NC(C)=C(C(=O)OC)C1c1ccccc1[N+](=O)[O-]` [NIFEDIPINE], in series [17], the IC50 was determined as 21.9 µM.
Turning to `CN(N=O)C(=O)N[C@@H](C=O)[C@@H](O)[C@H](O)[C@H](O)CO` [STREPTOZOCIN], the Activity is reported as 2.09% with INS1 [18], 1.62% with INS1 [19], 0.47% in the series with INS1 [20] and 11.65% with INS1 [21].
On to `O=c1c(O)c(-c2ccc(O)c(O)c2)oc2cc(O)cc(O)c12` [QUERCETIN], for which the half-inhibitory concentration (IC50) on Alpha amylase was 8.21 µM.
Turning to `CCC1=C(C)CN(C(=O)NCCc2ccc(S(=O)(=O)NC(=O)N[C@H]3CC[C@H](C)CC3)cc2)C1=O` [GLIMEPIRIDE], the inhibition at 10 µM was 27.1% in [3]; 28.8% in series [4]; 27.8% in [6]; 35.8% in [8]; 74% in series [10]; 24.2% in series [11]. In addition, the inhibition at 10 µM in series [15] was found to be 22%; in [16], 41.6%. Further, the Activity amounted to 33.5% in the series with Mus musculus [22]; 202.06 U/ml with Mus musculus [23]; 195.75 pg/mL in the series on Mus musculus [24]; 0.76% in the series with INS1 [18]; 0.49% in the series with INS1 [19]; 30.92 g in [25]. Further, the Activity stood at 0.27% in the series with INS1 [20]; 14.52 nmol/mL with Mus musculus [26]; 11.88 uU/ml in the series on Mus musculus [27]; 199.33 U/ml with Mus musculus [28]; 2.86% in the series on INS1 [21]; 639.5 ng/mL in the series with Mus musculus [29]. For the same compound, in the series on Mus musculus [30], the Activity was determined as 198.3 mg/dL.
